Here are results for 10 molecules from PMC9837865 (Pharmacology, biochemistry, and behavior, 2022).

Read-outs that look alike come from different tables or passages of the source.

Assay [1] has as its target T1, hCB1 receptor (Homo sapiens, UniProt P21554). Description: [3H]CP55,940 competition binding at hCB1 in HEK293 cell membranes. The note with it: for Ki: value in parenthesis.
In assay [2] the test system is male ICR mice. Description: Rectal temperature time course.
Assay [3] has as its target T1, hCB1 receptor. Description: Agonist-stimulated [35S]GTPγS binding, hCB1 HEK293 membranes. A general note: GTPγS is a poorly hydrolysed GTP analogue; its binding reports G protein activation.
The target of assay [4] is T2, hCB2 receptor (Homo sapiens, UniProt P34972). Description: Agonist-stimulated [35S]GTPγS binding, hCB2 HEK293 membranes. The following applies: for greater potency at hCB2 receptors than at hCB1 receptors: [35S]GTPγS potency ratio.
Assay [5] addresses T2, hCB2 receptor. Description: [3H]CP55,940 competition binding at hCB2 in HEK293 cell membranes. The note with it: for greater affinity at hCB2 receptors than at hCB1: binding affinity ratio hCB2 over hCB1.
In assay [6] the test system is male ICR mice. Kind of assay: Rectal temperature dose-effect. The following applies: for maximal hypothermia, difference from that produced by Δ9-THC: across the dose range tested.
The conditions of assay [7]: radiotelemetry, 6-h period; ref Sparkes et al., 2022; cited from earlier work.
Where [8] appears, read: CB1 Ki, [3H]CP55,940 displacement.
Where [9] appears, read: 3 mg/kg i.p., compared to vehicle at same timepoint.
The mark [10] stands for this setting: [35S]GTPγS Turnover CB2 EC50, value in parenthesis.
[11] abbreviates: [35S]GTPγS Turnover CB2 pEC50, pEC50 ± SEM.
Where [12] appears, read: CB2 Ki, [3H]CP55,940 displacement, value in parenthesis.
Setting [13] is: 10 mg/kg i.p., compared to vehicle at same timepoint.
Setting [14] is: 100 mg/kg i.p., compared to vehicle at same timepoint.
The mark [15] stands for this setting: [3H]CP55,940 displacement, pKi ± SEM.

T1 sequence (P21554 whole entry): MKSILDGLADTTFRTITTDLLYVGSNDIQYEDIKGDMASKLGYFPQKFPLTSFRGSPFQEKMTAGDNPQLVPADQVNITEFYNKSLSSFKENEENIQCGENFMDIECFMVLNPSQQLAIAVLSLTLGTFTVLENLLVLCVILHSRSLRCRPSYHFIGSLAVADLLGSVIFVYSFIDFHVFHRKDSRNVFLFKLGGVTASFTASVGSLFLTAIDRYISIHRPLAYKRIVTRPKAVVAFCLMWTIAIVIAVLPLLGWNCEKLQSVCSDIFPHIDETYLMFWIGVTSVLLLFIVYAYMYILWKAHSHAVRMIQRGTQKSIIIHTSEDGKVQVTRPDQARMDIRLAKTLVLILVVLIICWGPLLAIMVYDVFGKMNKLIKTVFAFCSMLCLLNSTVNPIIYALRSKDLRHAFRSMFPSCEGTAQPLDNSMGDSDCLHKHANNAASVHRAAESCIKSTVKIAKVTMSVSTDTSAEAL
T2 sequence (P34972 whole entry): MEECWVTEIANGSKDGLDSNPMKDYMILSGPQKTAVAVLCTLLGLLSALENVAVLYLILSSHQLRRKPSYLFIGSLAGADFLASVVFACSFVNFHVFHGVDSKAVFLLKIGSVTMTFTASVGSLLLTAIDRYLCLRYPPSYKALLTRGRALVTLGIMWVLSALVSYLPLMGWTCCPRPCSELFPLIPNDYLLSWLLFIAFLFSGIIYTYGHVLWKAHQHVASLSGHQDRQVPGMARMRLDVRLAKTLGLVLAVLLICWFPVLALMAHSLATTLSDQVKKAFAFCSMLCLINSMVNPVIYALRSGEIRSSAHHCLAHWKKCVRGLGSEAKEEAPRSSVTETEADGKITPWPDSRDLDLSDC

The term Ki denotes a measure of affinity in units of concentration, obtained from inhibition or displacement. As a reminder, the EC50 is the concentration needed to bring the measured effect to its halfway point. For `CCOC(=O)C(NC(=O)c1nn(CCCCCF)c2ccccc12)C(C)(C)C` (stereo not drawn) [5F-EDMB-PINACA, ethyl 2-(1-(5-fluoropentyl)-1H-indazole-3-carboxamido)-3,3-dimethylbutanoate], the inhibition constant Ki in assay [1] (setting [8]) was 0.378 nM; in assay [5] (setting [12]) it was 0.312 nM. Besides, the “duration of significant hypothermic effect” value in assay [2] (setting [9]) is 3 h. Also, the figures for the EC50 in assay [3], in assay [4] (setting [10]) and in assay [4] (setting [11]) were 1.6 nM, 0.442 nM and 0.437 nM, respectively. For the same molecule, the “[35S]GTPγS Turnover CB1 Emax” value in assay [3] is recorded as 387 ± 69.0 ^† 3 % stimulation over basal. Besides, in assay [4], the “[35S]GTPγS Turnover CB2 Emax” value is reported as 161 ± 8.36 3 % stimulation over basal.

For `COC(=O)[C@@H](NC(=O)c1cn(CCCCCF)c2ccccc12)C(C)(C)C` [5F-MDMB-PICA, methyl (2S)-2-{[1-(5-fluoropentyl)-1H-indole-3-carbonyl]amino}-3,3-dimethylbutanoate], the results for the inhibition constant Ki in assay [1] (setting [8]) and in assay [5] (setting [12]) were 1.25 nM and 0.437 nM, respectively. For the same molecule, the “duration of significant hypothermic effect” value in assay [2] (setting [9]) came to 7 h. The figures for the EC50 in assay [3] and in assay [4] (setting [10]) were 5.07 nM and 1.65 nM, respectively. The “[35S]GTPγS Turnover CB1 Emax” value in assay [3] is given as 380 ± 27.4 ^^ 3 % stimulation over basal. Besides, the “[35S]GTPγS Turnover CB2 Emax” value in assay [4] is 189 ± 25.2 3 % stimulation over basal.

Consider `COC(=O)[C@@H](NC(=O)c1cn(CCCCCF)c2ccccc12)C(C)C` [5F-MMB-PICA, methyl (2S)-2-[[1-(5-fluoropentyl)indole-3-carbonyl]amino]-3-methylbutanoate], for which the Ki in assay [1] (setting [8]) is 6.45 nM; in assay [5] (setting [12]) it was 3.4 nM. Moreover, the “duration of significant hypothermic effect” value in assay [2] (setting [13]) came to 3 h. Moreover, the “maximal hypothermia, difference from that produced by Δ9-THC” value in assay [6] is at most 1.5 °C. Further, the concentration giving a half-maximal response (EC50) in assay [3] was 27 nM; in assay [4] (setting [10]), 8.19 nM. In addition, the “[35S]GTPγS Turnover CB1 Emax” value in assay [3] was 295 ± 21.2 ^† 3 % stimulation over basal. For the same molecule, the “[35S]GTPγS Turnover CB2 Emax” value in assay [4] is given as 77.8 ± 13.3 3 % stimulation over basal.

Take `CCCCn1nc(C(=O)N[C@@H](Cc2ccccc2)C(N)=O)c2ccccc21` [APP-BINACA, N-[(2S)-1-amino-1-oxo-3-phenylpropan-2-yl]-1-butylindazole-3-carboxamide]: the Ki in assay [1] (setting [8]) was 107 nM; in assay [5] (setting [12]) it was 9.34 nM. For the same molecule, the “duration of significant hypothermic effect” value in assay [2] (setting [14]) stood at 4 h. Further, the EC50 is 344 nM in assay [3] and 2.24 nM in assay [4] (setting [10]). Moreover, in assay [3], the “[35S]GTPγS Turnover CB1 Emax” value was 180 ± 25.1 3 % stimulation over basal. Further, the “[35S]GTPγS Turnover CB2 Emax” value in assay [4] is 83.2 ± 2.72 3 % stimulation over basal. In assay [4], the “greater potency at hCB2 receptors than at hCB1 receptors” value (from here on “greater potency at hCB2 receptors than”) is 153 fold. Further, the “greater affinity at hCB2 receptors than at hCB1” value (shortened to “greater affinity … at hCB1”) in assay [5] is given as 12 fold. For the same molecule, in assay [7], the hypothermia result was “failed to produce any hypothermia”.

With `CC1(C)C(C(=O)c2cn(Cc3ccc(F)cc3)c3ccccc23)C1(C)C` [FUB-144, (1-(4-fluorobenzyl)-1H-indol-3-yl)(2,2,3,3-tetramethylcyclopropyl)methanone], the Ki in assay [1] (setting [8]) was 27.2 nM; in assay [5] (setting [12]), 1.19 nM; in assay [5] (CB2 pKi, [3H]CP55,940 displacement, pKi ± SEM) it was 1.17 nM. Besides, the “duration of significant hypothermic effect” value in assay [2] (20 mg/kg i.p.) is 1 h. The “maximal hypothermia, difference from that produced by Δ9-THC” value in assay [6] is at most 1.5 °C. For the same molecule, the EC50 in assay [3] was 90.6 nM; in assay [4] (setting [10]) it was 4.61 nM. The “[35S]GTPγS Turnover CB1 Emax” value in assay [3] is 218 ± 31.5 4 % stimulation over basal. The “[35S]GTPγS Turnover CB2 Emax” value in assay [4] was 194 ± 8.45 3 % stimulation over basal. For the same molecule, the “greater potency at hCB2 receptors than” value in assay [4] was found to be 20 fold. Besides, the “greater affinity … at hCB1” value in assay [5] stood at 23 fold.

Take `O=C(NC12CC3CC(CC(C3)C1)C2)c1nn(Cc2ccc(F)cc2)c2ccccc12` [FUB-AKB48, N-((3s,5s,7s)-adamantan-1-yl)-1-(4-fluorobenzyl)-1H-indazole-3-carboxamide]: the “CB1 pKi” value in assay [1] (setting [15]) is reported as 8.89 ± 0.265. Besides, the Ki is 1.3 nM in assay [1] (read-out: CB1 Ki, [3H]CP55,940 displacement) and 0.823 nM in assay [5] (read-out: CB2 Ki, [3H]CP55,940 displacement, value in parenthesis). In addition, the “duration of significant hypothermic effect” value in assay [2] (setting [13]) is given as at most 1 h. In addition, the “maximal hypothermia, difference from that produced by Δ9-THC” value in assay [6] is at most 1.5 °C. Also, in assay [3], the “[35S]GTPγS Turnover CB1 Emax” value is reported as 368 ± 55.5 ^‡ 4 % stimulation over basal. Moreover, the “[35S]GTPγS Turnover CB1 pEC50” value in assay [3] (pEC50 ± SEM) was determined as 8.16 ± 0.162. Further, the EC50 is 6.94 nM in assay [3] (read-out: [35S]GTPγS Turnover CB1 EC50, value in parenthesis) and 0.424 nM in assay [4] (read-out: [35S]GTPγS Turnover CB2 EC50, value in parenthesis). The “[35S]GTPγS Turnover CB2 Emax” value in assay [4] is reported as 131 ± 16.5 4 % stimulation over basal. In addition, the “greater potency at hCB2 receptors than” value in assay [4] is given as 16 fold. In assay [4] (pEC50 ± SEM), the “[35S]GTPγS Turnover CB2 pEC50” value is on record as 9.37 ± 0.318. In assay [5] (setting [15]), the “CB2 pKi” value turned out to be 9.08 ± 0.0188.

With `C=CCCCn1nc(C(=O)NC(C(=O)OC)C(C)(C)C)c2ccccc21` (stereo not drawn) [MDMB-4en-PINACA, methyl 3,3-dimethyl-2-{[1-(pent-4-en-1-yl)-1H-indazole-3-carbonyl]amino}butanoate], the Ki was 1.4 nM in assay [1] (setting [8]) and 0.213 nM in assay [5] (setting [12]). For the same molecule, in assay [2] (setting [9]), the “duration of significant hypothermic effect” value came to 4 h. For the same molecule, the EC50 is 3.3 nM in assay [3] and 1.34 nM in assay [4] (setting [10]). Moreover, the “[35S]GTPγS Turnover CB1 Emax” value in assay [3] was 304 ± 42.8 ^‡ 3 % stimulation over basal. The “[35S]GTPγS Turnover CB2 Emax” value in assay [4] is on record as 63.6 ± 9.95 3 % stimulation over basal. For the same molecule, the “greater affinity … at hCB1” value in assay [5] is 7 fold.

For `C=CCCCn1cc(C(=O)NC(C(=O)OC)C(C)C)c2ccccc21` (stereo not drawn) [MMB-4en-PICA, methyl 3-methyl-2-[(1-pent-4-enylindole-3-carbonyl)amino]butanoate], the Ki in assay [1] (setting [8]) was 39 nM; in assay [5] (setting [12]) it was 15.6 nM. In addition, in assay [2] (60 mg/kg i.p.), the “duration of significant hypothermic effect” value worked out at 5 h. Further, the “maximal hypothermia, difference from that produced by Δ9-THC” value in assay [6] is at most 1.5 °C. Besides, the EC50 in assay [3] is 60.7 nM; in assay [4] (setting [10]), 12.4 nM. Besides, the “[35S]GTPγS Turnover CB1 Emax” value in assay [3] is 298 ± 31.9 ^‡ 4 % stimulation over basal. Further, the “[35S]GTPγS Turnover CB2 Emax” value in assay [4] is reported as 77.6 ± 7.17 5 % stimulation over basal.

As for `COC(=O)C(NC(=O)c1cn(Cc2ccc(F)cc2)c2ccccc12)C(C)C` (stereo not drawn) [MMB-FUBICA, methyl 2-(1-(4-fluorobenzyl)-1H-indole-3-carboxamido)-3-methylbutanoate], the Ki in assay [1] (setting [8]) is 12 nM; in assay [5] (setting [12]), 22.5 nM. In assay [1] (binding affinity ratio CB1 over CB2), the “greater affinity for CB1 than CB2” value is recorded as “approximately 2 fold”. Further, the “duration of significant hypothermic effect” value in assay [2] (6 mg/kg i.p.) turned out to be 2 h. The “maximal hypothermia, difference from that produced by Δ9-THC” value in assay [6] was at most 1.5 °C. The EC50 in assay [3] is 59.7 nM; in assay [4] (setting [10]) it was 22.1 nM; in assay [4] (setting [11]), 22.4 nM. Moreover, in assay [3], the “[35S]GTPγS Turnover CB1 Emax” value is listed as 278 ± 29.3 ^† 3 % stimulation over basal. Further, the “[35S]GTPγS Turnover CB2 Emax” value in assay [4] was 52.1 ± 6.73 3 % stimulation over basal.

With `CCCCCc1cc(O)c2c(c1)OC(C)(C)[C@@H]1CCC(C)=C[C@@H]21` [Δ^9-THC, Δ^9-tetrahydrocannabinol, reference compound], the “time of peak hypothermic effect post-injection” value in assay [2] (100 mg/kg i.p.) lay in the range of 1 to 3 h. In assay [2] (setting [14]), the “duration of significant hypothermic effect” value stood at 8 h. Also, in assay [2] (single dose of each compound, as summarised in the discussion), the “time of peak hypothermic effects” value amounted to 2 h. For the same molecule, in assay [6] (i.p., compared to vehicle), the “lowest dose that decreased temperature” value amounted to 30 mg/kg.
